Experimental data published in patent publication US9744204B1, “Multipath nutritional supplement for memory, cognition, and coordination” (priority 2015, dated 2017).

Columns and labels:
rats = conditions: in rats; cited from earlier work
[1] = system: transgenic Drosophila melanogaster with an inducible tau; experiment: Timed crawl test in transgenic flies with RU-486-inducible human tau; type: in vivo; conditions: RU-486-treated tau transgenic flies, crawl tests twice each week as flies aged (FIG. 1A, FIG. 2)
Description: FIGS. 1A and 1B show typical screens of transgenic Drosophila melanogaster with an inducible tau (FIG. 1A) or Abeta (FIG. 1B), which greatly reduces neural function with age. To assay for fly behavior changes as neural dysfunction progresses, timed crawl tests in which the time it takes individual flies to climb to the top of a test vial were performed twice each week as the flies aged. Select compositions were screened for use on the transgenic flies using the genetically targeted substances believed to act on longevity genes. Different dose concentrations were tested. Two hundred flies (1 fly of each sex in each of 100 vials) for each test condition were used. RU-486 was added to all fly samples except the untreated controls named Untreated (dashed blue line) and the A+P+T Control) about 4-5 days after flies were placed in vials. The first crawl tests were started about 9-10 days after insertion into vials and 5-6 days after RU addition (see FIGS. 1A and 1B). In Untreated Controls (dashed blue line), young flies typically crawl to the top of the vial quickly in 7-10 seconds, while older flies have progressively longer crawl times of up to 40 seconds or more with advancing age. The RU Controls (solid blue line) were treated with RU-486 without any helper substance and therefore have poor crawling tests and die early at 7 weeks (tau in FIG. 1A) or 5 weeks (Abeta in FIG. 1B). […]

[2] = system: transgenic Drosophila melanogaster with an inducible Abeta; experiment: Timed crawl test in transgenic flies with RU-486-inducible human Abeta; type: in vivo; conditions: RU-486-treated Abeta transgenic flies (FIG. 1B)
Description: To assay for fly behavior changes as neural dysfunction progresses, timed crawl tests in which the time it takes individual flies to climb to the top of a test vial were performed twice each week as the flies aged. Select compositions were screened for use on the transgenic flies using the genetically targeted substances believed to act on longevity genes. Different dose concentrations were tested. Two hundred flies (1 fly of each sex in each of 100 vials) for each test condition were used. RU-486 was added to all fly samples except the untreated controls named Untreated (dashed blue line) and the A+P+T Control) about 4-5 days after flies were placed in vials. The first crawl tests were started about 9-10 days after insertion into vials and 5-6 days after RU addition (see FIGS. 1A and 1B). […] The single substances and substance combinations are shown by the one letter codes: A=Astragalus, P=Pterocarpus, T=L-Theanine, G=Genistein, B=Berberine, L=Lithium, and S=Selenium.
To assay for fly neural functional decline with age as Abeta, tau, or the Park gene is induced, crawl times were used to test substances initially picked from the genomics work.

Row | SMILES | neuroprotection (rats) | crawl time / delay of neuronal dysfunction induced by human tau expression [1] | crawl time / protection against dementia induced by human Abeta expression [2]
1 | CCNC(=O)CC[C@H](N)C(=O)O [L-Theanine, gamma-glutamylethylamide] | neuroprotective |  | 
2 | CC12CC3CC(C)(C1)CC(N)(C3)C2 [Mementin, reference compound] |  | works very well | 
3 | [Se] [Selenium] |  | can protect against dementia | can protect against dementia
